Entries after “also recorded” stand apart in the source; their conditions may differ.
Tests used:
[1] = biological target: T1, FcγRIIb-CD40 chimera (UniProt P25942+Q63203); test: FcγRIIb-CD40 chimera NF-κB luciferase assay of Aβ binding; format: cell-based, rat; settings: Aβ 5 μM
T1 construct: an extracellular domain of FcγRIIb was genetically fused to CD40, consisting of a transmembrane domain and a cytoplasmic domain; human CD40 transmembrane and cytoplasmic domains (fusion partner); expressed in transfected cells; host or cells: NIH3T3
T1 sequence (Q63203+P25942 with tags, fused parts or gaps): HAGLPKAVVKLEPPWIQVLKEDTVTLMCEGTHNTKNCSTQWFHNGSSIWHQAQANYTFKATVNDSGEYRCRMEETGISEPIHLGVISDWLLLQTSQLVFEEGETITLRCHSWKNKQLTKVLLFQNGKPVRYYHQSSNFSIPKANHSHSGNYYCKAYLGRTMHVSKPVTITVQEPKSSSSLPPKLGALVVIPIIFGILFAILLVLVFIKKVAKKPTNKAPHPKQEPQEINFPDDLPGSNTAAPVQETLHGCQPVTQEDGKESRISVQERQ
Excerpt: In order to investigate whether FcγRIIb binds to Aβ in a specific manner, an extracellular domain of FcγRIIb was genetically fused to CD40, consisting of a transmembrane domain and a cytoplasmic domain. The resulting FcγRIIb-CD40 fusion gene was expressed in NIH3T3 cells to increase NF-κ B activity, a signal transducer of CD40, when the fusion protein binds to Aβ. The chimeric gene was constructed as follows. A rat FcγRIIb extracellular region and human CD40 transmembrane and cytoplasmic domains were amplified by performing PCR with FcγRIIb-ED-5′-NheI primer (5′-[…]-3′: SEQ ID No. 15), FcγRIIb-ED-3′-HindIII primer (5′-[…]3′: SEQ ID No. 16), CD40-TM+cyto-5′ primer (5′-[…]-3′: SEQ ID No. 17), and CD40-TM+cyto-3′ primer (5′-[…]-3′: SEQ ID No. 18). PCR products were inserted into a pEGFP-N1 vector according to the same method as in Example 3. Cells were transfected with the chimeric gene, CD40, TNFRI, pcDNA3 (mock) along with an NF-kB-luciferase gene, and were exposed to 5 μM of Aβ or 20 ng/ml of TNF. NF-κ B activity was assessed, as described in Woo et al., FEBS Lett. 578, 239-244, 2004.
Based on the results of Example 10, a sequence spanning from the first to ninth residues from the N-terminus of Aβ, and a 95 to 101 sequence and a 107 to 114 sequence of mouse FcγRIIb, which are Aβ docking sites, were synthesized. Also, peptides, in which a residue involved in Aβ-cγRIIb binding in the above sequences was replaced with alanine, were synthesized. The peptides (wild type and mutant) have the sequences represented by SEQ ID Nos. 19 to 28 (panel a, FIG. 10). The synthesized peptides were individually allowed to react with a mixture of FcγRIIb-CD40 and Aβ (5 μM) or PBS. Then, luciferase activity was measured.

[2] = test system: BALB/c mice; test: Memory test (Y-maze, passive avoidance) after i.c.v. Aβ; format: in vivo, mouse; settings: i.c.v. injection of Aβ 410 pmole plus peptide, tests after one day
Method: Tg2576 mice were not used in this test because it takes a lot of time to breed the animals, and they are expensive. Instead, normal mice were used in this memory test because the same AD symptoms as in Tg2576 mice were observed when Aβ was injected into the brains of normal mice. Normal BALB/c mice were injected intracerebroventricularly (i.c.v.) with Aβ (1.855 μg/5 μl, 410 pmole) alone or in combination with a specific peptide. After one day, a Y-maze test and a passive avoidance test were performed. Memory was assessed as described in Yan et al., Br. J. Pharmacol, 133:89-96, 2001.

[3] = test system: FcγRIIb; test: Western blot of FcγRIIb expression in Aβ-exposed B103 cells treated with FcγRIIb ED; format: cell-based, rat; settings: 5 μM Aβ 48 hrs; 100 μg FcγRIIb ED
Method: (§1) An FcγRIIb extracellular domain (ED) was purified as described in Sondermann et al., EMBO J, 18:1095-1103, 1999. Neuronal B103 cells or primary-cultured neuronal cells were exposed to 5 μM of Aβ for 48 hrs. Then, cells were treated or not treated with 100 μg of the purified FcγRIIb ED, or treated or not treated with 100 μg of bovine serum albumin (BSA). B103 cells were subjected to Western blotting, which was performed with anti-FcγRIIb antibody as described in Example 2-2. The primary neuronal culture was evaluated for cell survival as described in Example 3.

[4] = test system: primary-cultured neuronal cells; test: Cell survival of Aβ-exposed primary neuronal culture treated with FcγRIIb ED; format: cell-based, rat; settings: 5 μM Aβ 48 hrs, 100 μg FcγRIIb ED, compared to BSA
Method: as §1

[5] = biological target: T2, Aβ1-42 (Homo sapiens, UniProt P05067); test: In vitro binding assay (immunoprecipitation, Western blot); settings: 5 μM Aβ, 20 μg FcγRIIb-ED, 37° C. 3 hrs
T2 construct: subjected to Western blotting to assess the association between FcγRII and Aβ1-42; purchased Sigma
Method: 5 μM of Aβ was mixed with 20 μg of FcγRIIb-ED or 20 μg of BSA in vitro, and was incubated at 37° C. for 3 hrs. The reaction mixture was incubated with anti-FcγRIIb polyclonal antibody or anti-GST antibody for 2 hrs, and then with Protein G for 3 hrs (binding solution: 50 mM Tris-HCl, pH 7.4, 1 mM DTT, 0.5 mM EDTA, 0.01% Triton X-100, 0.5 mg/ml bovine serum albumin, 10% (v/v) glycerol, protease inhibitors cocktail, several concentrations of NP-40). The beads were washed three times and subjected to Western blotting to assess the association between FcγRII and Aβ1-42. Western blotting was carried out with K9.361 antibody and anti-Aβ antibody (primary antibody: 71-5800 (Zymed, USA); secondary antibody: goat anti-rabbit IgG conjugated to horseradish peroxidase (Santa Cruz Biotechnology, USA).

[6] = test system: BALB/c mice; test: Immunostaining of intraneuronal Aβ accumulation in mouse brain; format: in vivo; settings: mice treated i.c.v. with Aβ plus peptide
Method: Brain specimens were prepared from the mice of Example 13 according to the same method as in Example 6. Sections were immunostained with primary antibodies, anti-Aβ antibody (Biosource, USA) plus an antibody to a marker of neurons, anti-neuron specific enolase (NSE) antibody (Axxora, Swiss) or anti-neuron specific nuclear protein (NeuN) antibody (Chemicon, USA), and with secondary antibodies, anti-mouse-FITC antibody (goat anti-mouse IgG conjugated to FITC (Santa Cruz Biotechnology, USA), anti-mouse-TRITC antibody (goat anti-mouse IgG conjugated to TRITC (Santa Cruz Biotechnology, USA), and anti-rabbit-goat-anti-mouse IgG conjugated to horseradish peroxidase (Santa Cruz Biotechnology, USA)).

[7] = test system: B103 cells; test: Immunostaining of intracellular Aβ accumulation in siRNA-transfected B103 cells; format: cell-based, rat; settings: 100 nM Aβ, 12 hrs
Method: psiFcγRIIb #1 cells or psiRAGE #1 cells, prepared in Example 4, were exposed to 100 nM of Aβ or PBS for 12 hrs, and immunostained with anti-Aβ antibody (4G8; Signet, USA) according to the same method as in Example 2-3.

[8] = test system: B103 cells; test: Viability of siRNA-transfected B103 cells exposed to Aβ; format: cell-based, rat; settings: 5 μM Aβ, 48 hrs
Excerpt: Small interfering RNAs (siRNAs) inhibiting the expression of FcγIIb and receptors for advanced glycation end-product (RAGE), which is known as a cell surface receptor of Aβ, were constructed, and their effects on cell death were compared to each other. A siRNA duplex was formed by hybridizing sense and antisense complementary RNA oligonucleotides, listed in Table 1, below, and was inserted into pSuper-neo (Oligoengine, USA). The siRNA expression vectors thus constructed were individually transfected into B103 cells using lipofectamine (Invitrogen, USA) according to the manufacturer's protocol. The resulting transfected cells were designated “pSuper-neo”, “psiFcγRIIb#1”, “psiFcγRIIb#2”, “psiRAGE#1”, and “psiRAGE#2”. Then, transfected cells were subjected to Western blot analysis. […] Then, the transformed B103 cells were exposed to 5 μM of Aβ or PBS for 48 hrs, and their viability was evaluated. Cell survival was assessed through trypan blue exclusion, Hoechst staining (Sigma, USA), and Annexin V labeling (Promega, USA). The survival of effector cells and cells introduced with pEGFP (Clontech, USA) was determined by observing the morphology of GFP-positive cells under a fluorescence microscope (Leica DMRBE, Germany). Cells were determined to be dead when the cell morphology changed to a spherical shape and the cell membrane was disrupted or destroyed.

T2 sequence (P05067 672-713): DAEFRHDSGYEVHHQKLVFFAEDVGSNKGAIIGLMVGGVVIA

9: synthesized peptide among SEQ ID Nos. 19 to 28; corresponds to a binding region in Aβ or FcγRIIb; probably SEQ ID No. 27 (RCHSWRNK; Synthetic peptide #9 for interaction inhibitor) [compound 9]
NF-κB activation induced through binding of Aβ to FcγRIIb-CD40 (luciferase activity) [1]: strongly inhibited; also recorded: effectively inhibited
Aβ-induced memory decline [2]: strongly reduce; also recorded: restore

FcγRIIb ED: purified FcγRIIb extracellular domain (SEQ ID No. 33), purified as described in Sondermann et al. 1999
Aβ-increased expression of FcγRIIb [3]: suppressed
Aβ signaling / relative cell viability [4]: completely inhibit
Aβ signaling / relative cell viability ([4]; listed as FcγRIIb extracellular domain): increased to that of cells not exposed to Aβ; also recorded: increase the relative viability of neuronal cells exposed to Aβ to the same level as cells not exposed to Aβ
binding of Aβ to FcγRIIb-ED [5]: directly bind

peptide #1: synthesized peptide among SEQ ID Nos. 19 to 28; corresponds to a binding region in Aβ or FcγRIIb; probably SEQ ID No. 19 (DAEFRHDSG; Synthetic peptide #1 for interaction inhibitor)
NF-κB activation induced through binding of Aβ to FcγRIIb-CD40 (luciferase activity) ([1]; listed as #1): strongly inhibited; also recorded: effectively inhibited
Aβ-induced memory decline ([2]; listed as #1): strongly reduce; also recorded: restore
intraneuronal Aβ accumulation in brain ([6]; listed as #1): disappeared; also recorded: completely inhibited

peptide #7: mutant peptide having an alanine substitution for a residue responsible for Aβ-FcγRIIb binding; among SEQ ID Nos. 19 to 28 (DAEARHASG; Synthetic peptide #7 for interaction inhibitor)
NF-κB activation induced through binding of Aβ to FcγRIIb-CD40 (luciferase activity) [1]: sharp decrease in inhibitory effects
Aβ-induced memory decline [2]: failed to reverse memory decline
intraneuronal Aβ accumulation in brain [6]: strong intraneuronal Aβ staining

B1: siRNA against RAGE: siRNA against RAGE, oligomers SEQ ID Nos. 13 and 14, inserted into pSuper-neo (nucleic acid)
sense: GATCCCCGCTCCGGATGAAGAATCAGTTCAAGAGACTGATTCTTCATCCGGAGCTTTTTGGAAA
antisense: AGCTTTTCCAAAAAGCTCCGGATGAAGAATCAGTCTCTTGAACTGATTCTTCATCCGGAGCGGAGTCGGG
modifications: expressed or natural sequence; the letters are possibly those of the target site
intracellular Aβ accumulation [7]: maintained
Aβ-induced cell death / survival [8]: low survival

From US9234038B2, “Compositions and method for the diagnosis, prevention and treatment of alzheimer's disease” (Seoul National University Industry Foundation, priority 2007, dated 2016)
